Consider 26 compounds from patent publication US12209087B2, “AKT1 modulators” (Alterome Therapeutics, Inc., priority 2022, dated 2025).

Each structure is given as a SMILES string. A value given as a limit tells only on which side of the number the result lay.

In the first test the target is T1, full length AKT E17K (Homo sapiens, UniProt P31749, E17K).
T1 construct: host or cells: HEK-293 (ATCC CRL-1573)
T1 sequence (P31749 whole entry E17K): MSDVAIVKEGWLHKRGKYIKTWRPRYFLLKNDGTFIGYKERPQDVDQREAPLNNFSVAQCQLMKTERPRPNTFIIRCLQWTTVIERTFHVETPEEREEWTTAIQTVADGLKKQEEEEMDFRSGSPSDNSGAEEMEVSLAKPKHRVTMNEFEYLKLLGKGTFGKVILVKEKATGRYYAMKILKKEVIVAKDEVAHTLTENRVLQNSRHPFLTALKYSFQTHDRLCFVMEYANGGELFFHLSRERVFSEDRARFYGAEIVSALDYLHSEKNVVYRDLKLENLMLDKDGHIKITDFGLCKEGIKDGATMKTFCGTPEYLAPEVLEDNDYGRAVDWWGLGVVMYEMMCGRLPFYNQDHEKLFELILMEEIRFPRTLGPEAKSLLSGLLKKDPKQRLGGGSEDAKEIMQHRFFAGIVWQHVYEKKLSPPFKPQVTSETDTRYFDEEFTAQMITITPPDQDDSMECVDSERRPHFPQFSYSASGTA
The test is described as follows: NanoBRET Target Engagement (TE) Assay. The format is cell-based. Conditions: competitive displacement of tracer in cells, read-out: AKT1 E17K IC50. In outline:
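Compound and tracer incubated 2 h before luminescence at donor 450 nm and acceptor 600 nm, with extracellular signal inhibited. EC50 by sigmoidal variable-slope regression.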
(BRET reads energy transfer from a luciferase to a nearby fluorophore.)
For the compound `[2H]C1(Nc2ccnc(C#N)n2)CCN(Cc2ccc(-n3c(-c4cccnc4N)nc4ccc(-c5ccc(F)cc5)nc43)cc2)CC1` [Example 451, 4-((1-(4-(2-(2-Aminopyridin-3-yl)-5-(4-fluorophenyl)-3H-imidazo[4,5-b]pyridin-3-yl)benzyl)piperidin-4-yl-4-d)amino)pyrimidine-2-carbonitrile], the IC50 (commonly the concentration that inhibits the measured activity by half) is under 15 nM.

Regarding `N#Cc1ccc(-c2ccc3nc(-c4cccnc4N)n(-c4ccc(CN5CCC(Nc6ccnc(C#N)n6)CC5)cc4)c3n2)cn1` [Example 419, 4-((1-(4-(2-(2-Aminopyridin-3-yl)-5-(6-cyanopyridin-3-yl)-3H-imidazo[4,5-b]pyridin-3-yl)benzyl)piperidin-4-yl)amino)pyrimidine-2-carbonitrile], the IC50 was under 15 nM.

Regarding `N#Cc1nccc(NC2CCN(Cc3ccc(-n4c(-c5cccnc5N)nc5ccc(-c6ncccc6F)nc54)cc3)CC2)n1` [Example 570, 4-((1-(4-(2-(2-Aminopyridin-3-yl)-5-(3-fluoropyridin-2-yl)-3H-imidazo[4,5-b]pyridin-3-yl)benzyl)piperidin-4-yl)amino)pyrimidine-2-carbonitrile], the IC50 is under 15 nM.

As to `Cn1ccc(-c2ccc3nc(-c4cccnc4N)n(-c4ccc(CN5CCN(c6ccnc(C#N)n6)CC5)cc4)c3n2)cc1=O` [Example 349, 4-(4-(4-(2-(2-Aminopyridin-3-yl)-5-(1-methyl-2-oxo-1,2-dihydropyridin-4-yl)-3H-imidazo[4,5-b]pyridin-3-yl)benzyl)piperazin-1-yl)pyrimidine-2-carbonitrile], the half-inhibitory concentration (IC50) was in the range of 15 to 60 nM.

For the compound `[2H]C([2H])([2H])N(c1ccnc(C#N)n1)C1CCN(Cc2ccc(-n3c(-c4cccnc4N)nc4ccc(-c5ccc(F)cc5)nc43)cc2)CC1` [Example 441, 4-((1-(4-(2-(2-Aminopyridin-3-yl)-5-(4-fluorophenyl)-3H-imidazo[4,5-b]pyridin-3-yl)benzyl)piperidin-4-yl)(methyl-d3)amino)pyrimidine-2-carbonitrile], the concentration for half-maximal inhibition (IC50) is under 15 nM.

`N#Cc1nccc(NC2CCN(Cc3ccc(-n4c(-c5cccnc5N)nc5ccc(-c6ccc(F)cc6)nc54)cc3)CC2)n1` [Example 370, 4-((1-(4-(2-(2-Aminopyridin-3-yl)-5-(4-fluorophenyl)-3H-imidazo[4,5-b]pyridin-3-yl)benzyl)piperidin-4-yl)amino)pyrimidine-2-carbonitrile]: the IC50 was under 15 nM.

As for `N#Cc1nccc(NC2CCN(Cc3ccc(-n4c(-c5cccnc5N)nc5ccc(N6CCNC(=O)CC6)nc54)cc3)CC2)n1` [Example 323, 4-((1-(4-(2-(2-Aminopyridin-3-yl)-5-(5-oxo-1,4-diazepan-1-yl)-3H-imidazo[4,5-b]pyridin-3-yl)benzyl)piperidin-4-yl)amino)pyrimidine-2-carbonitrile], the IC50 was 600 to 10000 nM.

For `N#Cc1nccc(NC2CCN(Cc3ccc(-n4c(-c5cccnc5N)nc5ccc(-c6ccc(F)c(O)c6)nc54)cc3)CC2)n1` [Example 545, 4-((1-(4-(2-(2-Aminopyridin-3-yl)-5-(4-fluoro-3-hydroxyphenyl)-3H-imidazo[4,5-b]pyridin-3-yl)benzyl)piperidin-4-yl)amino)pyrimidine-2-carbonitrile], the half-maximal inhibitory concentration (IC50) was under 15 nM.

As to `CC(C)Oc1ccc(-c2ccc3nc(-c4cccnc4N)n(-c4ccc(CN5CCC(Nc6ccnc(C#N)n6)CC5)cc4)c3n2)nc1` [Example 586, 4-((1-(4-(2-(2-Aminopyridin-3-yl)-5-(5-isopropoxypyridin-2-yl)-3H-imidazo[4,5-b]pyridin-3-yl)benzyl)piperidin-4-yl)amino)pyrimidine-2-carbonitrile], the IC50 was under 15 nM.

With `N#Cc1nccc(NC2CCN(Cc3ccc(-n4c(-c5cccnc5N)nc5ccc(-c6ccc(F)nc6)nc54)cc3)CC2)n1` [Example 404, 4-((1-(4-(2-(2-Aminopyridin-3-yl)-5-(6-fluoropyridin-3-yl)-3H-imidazo[4,5-b]pyridin-3-yl)benzyl)piperidin-4-yl)amino)pyrimidine-2-carbonitrile], the half-maximal inhibitory concentration (IC50) was under 15 nM.

`N#Cc1nccc(NC2CCN(Cc3ccc(-n4c(-c5cccnc5N)nc5cc(C#N)c(O)nc54)cc3)CC2)n1` [Example 599, 2-(2-Aminopyridin-3-yl)-3-(4-((4-((2-cyanopyrimidin-4-yl)amino)piperidin-1-yl)methyl)phenyl)-5-hydroxy-3H-imidazo[4,5-b]pyridine-6-carbonitrile]: the concentration for half-maximal inhibition (IC50) was in the range of 600 to 10000 nM.

As for `N#Cc1nccc(NC2CCN(Cc3ccc(-n4c(-c5cccnc5N)nc5ccc(-n6cncn6)nc54)cc3)CC2)n1` [Example 590, 4-((1-(4-(2-(2-Aminopyridin-3-yl)-5-(1H-1,2,4-triazol-1-yl)-3H-imidazo[4,5-b]pyridin-3-yl)benzyl)piperidin-4-yl)amino)pyrimidine-2-carbonitrile], the 50% inhibitory concentration (IC50) was under 15 nM.

On to `[2H]C([2H])([2H])N(c1ccnc(C#N)n1)C1CCN(Cc2ccc(-n3c(-c4cccnc4N)nc4cc(C)c(C)nc43)cc2)CC1` [Example 455, 4-((1-(4-(2-(2-Aminopyridin-3-yl)-5,6-dimethyl-3H-imidazo[4,5-b]pyridin-3-yl)benzyl)piperidin-4-yl)(methyl-d3)amino)pyrimidine-2-carbonitrile], for which the IC50 was under 15 nM.

For the compound `N#Cc1ncnc(NC2CCN(Cc3ccc(-n4c(-c5cccnc5N)nc5ccc(-c6ccccc6)nc54)cc3)CC2)n1` [Example 391, 4-((1-(4-(2-(2-Aminopyridin-3-yl)-5-phenyl-3H-imidazo[4,5-b]pyridin-3-yl)benzyl)piperidin-4-yl)amino)-1,3,5-triazine-2-carbonitrile], the half-inhibitory concentration (IC50) is under 15 nM.

For the compound `N#Cc1nccc(NC2CCN(Cc3ccc(-n4c(-c5cccnc5N)nc5ccc(-c6ccc(OC7CC7)cn6)nc54)cc3)CC2)n1` [Example 585, 4-((1-(4-(2-(2-Aminopyridin-3-yl)-5-(5-cyclopropoxypyridin-2-yl)-3H-imidazo[4,5-b]pyridin-3-yl)benzyl)piperidin-4-yl)amino)pyrimidine-2-carbonitrile], the IC50 is under 15 nM.

In the case of `N#Cc1nccc(NC2CCN(Cc3ccc(-n4c(-c5cccnc5N)nc5ccc(-c6cccc(Cl)c6)nc54)cc3)CC2)n1` [Example 353, 4-((1-(4-(2-(2-Aminopyridin-3-yl)-5-(3-chlorophenyl)-3H-imidazo[4,5-b]pyridin-3-yl)benzyl)piperidin-4-yl)amino)pyrimidine-2-carbonitrile], the concentration for half-maximal inhibition (IC50) was in the range of 60 to 600 nM.

Turning to `N#Cc1nccc(NC2CCN(Cc3ccc(-n4c(-c5cccnc5N)nc5ccc(CO)nc54)cc3)CC2)n1` [Example 508, 4-((1-(4-(2-(2-Aminopyridin-3-yl)-5-(hydroxymethyl)-3H-imidazo[4,5-b]pyridin-3-yl)benzyl)piperidin-4-yl)amino)pyrimidine-2-carbonitrile], the concentration for half-maximal inhibition (IC50) was in the range of 15 to 60 nM.

Still in this test, the particulars now being: competitive tracer displacement in living cells, read-out: AKT1 E17K IC50.
Consider `N#Cc1ccncc1C(=O)NC1CCN(Cc2ccc(-n3c(-c4cccnc4N)nc4cccnc43)cc2)CC1` [Example 29, N-(1-(4-(2-(2-Aminopyridin-3-yl)-3H-imidazo[4,5-b]pyridin-3-yl)benzyl)piperidin-4-yl)-4-cyanonicotinamide], for which the half-inhibitory concentration (IC50) fell in the range of 600 to 10000 nM.

In the case of `N#Cc1cccc(OC2CCN(Cc3ccc(-n4c(-c5cccnc5N)nc5ccc(-c6ccccc6)nc54)cc3)CC2)n1` [Example 7, 6-((1-(4-(2-(2-Aminopyridin-3-yl)-5-phenyl-3H-imidazo[4,5-b]pyridin-3-yl)benzyl)piperidin-4-yl)oxy)picolinonitrile], the half-inhibitory concentration (IC50) was in the range of 60 to 600 nM.

As to `N#Cc1ncnc(N2CC3CCC2CN3Cc2ccc(-n3c(-c4cccnc4N)nc4ccc(-c5ccccc5)nc43)cc2)n1` (centres unmarked) [Example 257, 4-(5-(4-(2-(2-Aminopyridin-3-yl)-5-phenyl-3H-imidazo[4,5-b]pyridin-3-yl)benzyl)-2,5-diazabicyclo[2.2.2]octan-2-yl)-1,3,5-triazine-2-carbonitrile], the concentration for half-maximal inhibition (IC50) lay within 15 to 60 nM.

`N#Cc1cc(C(=O)NC2CCN(Cc3ccc(-n4c(-c5cccnc5N)nc5ccc(-c6ccccc6)nc54)cc3)CC2)ccn1` [Example 55, N-(1-(4-(2-(2-Aminopyridin-3-yl)-5-phenyl-3H-imidazo[4,5-b]pyridin-3-yl)benzyl)piperidin-4-yl)-2-cyanoisonicotinamide]: the 50% inhibitory concentration (IC50) was in the range of 15 to 60 nM.

Consider `N#Cc1cc(C(=O)NC2CCN(Cc3ccc(-n4c(-c5cccnc5N)nc5cccnc54)cc3)CC2)ccn1` [Example 23, N-(1-(4-(2-(2-aminopyridin-3-yl)-3H-imidazo[4,5-b]pyridin-3-yl)benzyl)piperidin-4-yl)-2-cyanoisonicotinamide], for which the half-maximal inhibitory concentration (IC50) fell in the range of 600 to 10000 nM.

On to `N#Cc1ccnc(N2CCN(Cc3ccc(-n4c(-c5cccnc5N)nc5ccc(-c6ccccc6)nc54)cc3)CC2)c1` [Example 66, 2-(4-(4-(2-(2-Aminopyridin-3-yl)-5-phenyl-3H-imidazo[4,5-b]pyridin-3-yl)benzyl)piperazin-1-yl)isonicotinonitrile], for which the IC50 fell in the range of 600 to 10000 nM.

Consider `N#Cc1ncnc(NC2COCCN(Cc3ccc(-n4c(-c5cccnc5N)nc5ccc(-c6ccccc6)nc54)cc3)C2)n1` (centres unmarked) [Example 279, 4-((4-(4-(2-(2-Aminopyridin-3-yl)-5-phenyl-3H-imidazo[4,5-b]pyridin-3-yl)benzyl)-1,4-oxazepan-6-yl)amino)-1,3,5-triazine-2-carbonitrile], for which the 50% inhibitory concentration (IC50) was under 15 nM.

In the case of `N#Cc1ncnc(N2CC3(CCN(Cc4ccc(-n5c(-c6cccnc6N)nc6ccc(-c7ccccc7)nc65)cc4)CC3)C2)n1` [Example 249, 4-(7-(4-(2-(2-aminopyridin-3-yl)-5-phenyl-3H-imidazo[4,5-b]pyridin-3-yl)benzyl)-2,7-diazaspiro[3.5]nonan-2-yl)-1,3,5-triazine-2-carbonitrile], the half-maximal inhibitory concentration (IC50) lay within 15 to 60 nM.

As for `C[C@@H]1CN(Cc2ccc(-n3c(-c4cccnc4N)nc4ccc(-c5ccccc5)nc43)cc2)C[C@@H](C)N1c1nccc(C#N)n1` [Example 196, 2-((2R,6R)-4-(4-(2-(2-aminopyridin-3-yl)-5-phenyl-3H-imidazo[4,5-b]pyridin-3-yl)benzyl)-2,6-dimethylpiperazin-1-yl)pyrimidine-4-carbonitrile], the IC50 was in the range of 60 to 600 nM.
